Where no end group is shown, it is not given here.
What was measured:
[1] = tested on: S. epidermidis (KCTC 1917); assay type: cell-based, Staphylococcus epidermidis; settings: broth microdilution in MHB, 37 °C, 24 h, 100% inhibition of growth
Protocol: (§1) The antibacterial efficacy of the synthesized peptides was evaluated by determining the minimal inhibitory concentrations (MICs) against six standard bacterial strains and five drug-resistant bacterial strains using the Clinical and Laboratory Standards Institute (CLSI) microdilution method. Melittin served as the positive control.
(§2) The minimal inhibitory concentrations (MICs) of the peptides against bacterial strains were determined using a modified broth-microdilution method in accordance with the National Committee for Clinical Laboratory Standards (NCCLS) guidelines. Overnight cultures were diluted in cation-adjusted Mueller–Hinton Broth (MHB) to achieve an inoculum density of 2 × 10^6 CFU/mL. A two-fold serial dilution of the peptide solution (100 μL) was introduced into microtiter plates, followed by the addition of 100 μL of bacterial suspension. The plates were then incubated at 37 °C for 24 h to determine the MICs. Wells containing only culture media served as negative controls, while those with added bacteria functioned as positive controls. The MIC, expressed in μM, was defined as the lowest peptide concentration that prevented visible bacterial growth. This protocol was also employed to determine MICs in the presence of physiological salts (150 mM of NaCl, 4.5 mM of KCl, 6 μM of NH4Cl, 1 mM of MgCl2, 2.5 mM of CaCl2, and 4 μM of FeCl3) and 20% human serum to assess the peptides’ efficacy under conditions more closely resembling physiological environments. All experiments were conducted in triplicate and repeated three times independently to ensure reproducibility and statistical significance of the results.

[2] = tested on: P. aeruginosa (KCTC 1637); assay type: cell-based, Pseudomonas aeruginosa; settings: broth microdilution in MHB, 37 °C, 24 h, 100% inhibition of growth
Protocol: as §1, §2

[3] = tested on: S. typhimurium (KCTC 1926); assay type: cell-based, Salmonella typhimurium; settings: broth microdilution in MHB, 37 °C, 24 h, 100% inhibition of growth
Protocol: as §1, §2

S. aureus (KCTC 1621) = assay type: cell-based, Staphylococcus aureus; settings: broth microdilution in MHB, 37 °C, 24 h, 100% inhibition of growth
Protocol: as §1, §2

[4] = tested on: sheep red blood cells (sRBCs); assay: Hemolytic activity assay; assay type: cell-based; settings: 4% (v/v) sheep red blood cells in PBS, 1 h, 37 °C; 1 to 256 μM tested
Protocol: To assess toxicity in mammalian cells, we evaluated the hemolytic activity of the peptides on sheep red blood cells (sRBCs). […] The therapeutic index (TI), a measure commonly employed to evaluate the cell selectivity of antibacterial agents, was calculated as the ratio of the concentration causing 10% hemolysis of sRBCs (HC10) to the GM [19, 20, 21, 22].
The hemolytic activity of the peptides was tested through hemolysis assay of sheep red blood cells (sRBCs). The sRBCs were diluted in PBS to achieve a 4% (v/v) concentration. Subsequently, 100 μL of peptide solutions, ranging from 1 to 256 μM, was dispensed into a 96-well plate containing an equal volume of the erythrocyte suspension. After incubating for 1 h at 37 °C and centrifuging at 1000× g for 10 min, 100 μL of the supernatant was transferred to a new 96-well plate. Hemoglobin release was quantified using a microplate reader at a wavelength of […]. The percentage of hemolysis was calculated using percentage hemolysis = 100 × [[…]], where A represents the absorbance of the peptide-treated sample at 540 nm, A0 corresponds to the absorbance value representing 0% hemolysis in PBS, and At corresponds to the absorbance value representing 100% hemolysis in 0.1% Triton X-100.

MRSA (CCARM 3090) = assay type: cell-based, methicillin-resistant Staphylococcus aureus; settings: broth microdilution in MHB, 37 °C, 24 h, 100% inhibition of growth
Protocol: as §1, §2

MRSA (CCARM 3089) = assay type: cell-based, methicillin-resistant Staphylococcus aureus; settings: broth microdilution in MHB, 37 °C, 24 h, 100% inhibition of growth
Protocol: as §1, §2

[5] = tested on: preformed MDRPA (CCARM 2095) biofilms; assay type: cell-based, multidrug-resistant Pseudomonas aeruginosa; settings: 24 h treatment; for MBEC50: 50% eradication; for MBEC90: 90% eradication
Protocol: While preventing biofilm formation on surfaces is crucial, treating established biofilm infections presents a significant challenge due to the extracellular polymeric substance (EPS) matrix hindering antibiotic penetration and the high cell density within mature biofilms. To address this challenge, we evaluated the ability of BP100 and its analogs to eradicate established MDRPA biofilms over a 24 h period. The minimum biofilm eradication concentration (MBEC90) was determined using crystal violet staining as the lowest concentration that reduced biomass by more than 90%. Among these peptides, BP5, BP6, BP7, BP8, BP9, BP11, and BP13 eradicated preformed MDRPA biofilms by more than 90% at a concentration of 8 μM (Figure 3c,d and Table 3).
The minimal biofilm eradication concentration (MBEC) for peptides against the multidrug-resistant Pseudomonas aeruginosa (MDRPA) (CCARM 2095) strain was assessed using the Calgary Biofilm Device (CBD), supplied by Innovotech, Edmonton, AB, Canada. A bacterial suspension with a density of (1 × 10^6) CFU/mL in (150 µL) of Luria–Bertani (LB) media was dispensed into each well of a 96-well microtiter plate, which was equipped with a peg lid (Innovotech, product code: 19111). This plate was incubated at 37 °C for 24 h with agitation at 110 rpm, promoting biofilm formation on the pegs. Subsequently, the peg lid was washed with phosphate-buffered saline (PBS, 0.01 M) and relocated to a fresh plate containing varying peptide concentrations (200 µL per well). The biofilms were then subjected to these peptides under the same incubation conditions. After another PBS rinse, the peg lid was moved to a recovery plate filled with (200 µL) of LB media per well. To detach the biofilms from the pegs, the recovery plate underwent sonication in a water bath for 10 to 15 min. Finally, the recovery plate was incubated at 37 °C for 24 h with agitation at 110 rpm, allowing any surviving bacteria to proliferate and cause turbidity. The MBEC is defined as the lowest concentration of peptides that inhibited turbidity formation in the recovery plate in comparison to sterility controls. This experiment was conducted in triplicate, and the median value from each trial was recorded.

Molecule | Minimal Inhibitory Concentration (MIC) [1] [µM] | Minimal Inhibitory Concentration (MIC) [2] [µM] | Minimal Inhibitory Concentration (MIC) [3] [µM] | Minimal Inhibitory Concentration (MIC) (S. aureus (KCTC 1621)) [µM] | HC10 (peptide concentration that caused 10% hemolysis) [4] [µM] | Minimal Inhibitory Concentration (MIC) (MRSA (CCARM 3090)) [µM] | Minimal Inhibitory Concentration (MIC) (MRSA (CCARM 3089)) [µM] | MBEC50 [5] [µM] | MBEC90 [5] [µM]
CC[C@H](C)[C@H](NC(=O)[C@H](CCCCN)NC(=O)[C@H](CCCCN)NC(=O)[C@H](Cc1ccccc1)NC(=O)[C@H](CC(C)C)NC(=O)[C@H](CCCCN)NC(=O)[C@@H](N)CCCCN)C(=O)N[C@@H](CC(C)C)C(=O)N[C@@H](CCCCN)C(=O)N[C@@H](Cc1c[nH]c2ccccc12)C(=O)N[C@@H](CC(C)C)C(N)=O [BP4] | 8 | 16 | 2 | 4 | >256 | 64 | 64 | 8 | 32
CC[C@H](C)[C@H](NC(=O)[C@H](CCCCN)NC(=O)[C@H](CCCCN)NC(=O)[C@H](Cc1ccccc1)NC(=O)[C@H](CC(C)C)NC(=O)[C@H](CCCCN)NC(=O)[C@@H](N)CCCCN)C(=O)N[C@@H](Cc1c[nH]c2ccccc12)C(=O)N[C@@H](CCCCN)C(=O)N[C@@H](Cc1ccc(O)cc1)C(=O)N[C@@H](CC(C)C)C(N)=O [BP3] | 8 | 32 | 4 | 8 | >256 | 64 | 64 | 16 | 32
KKWWKKILKYL-NH2 [BP5] | 1 | 4 | 2 | 2 | >256 | 8 | 4 | 2 | 8
KKLFKKIWKWL-NH2 [BP11] | 4 | 8 | 2 | 4 | >256 | 32 | 8 | 4 to 8 | 8
KKLWKKWLKYW-NH2 [BP14] | 2 | 8 | 8 | 2 | >256 | 32 | 16 | 8 to 16 | 16
KKLWKKIWKYW-NH2 [BP15] | 4 | 8 | 4 | 2 | >256 | 64 | 16 | 8 to 16 | 16
